Assay results from patent publication US8008494B2, “Soluble amide and ester pyrazinoylguanidine sodium channel blockers” (Parion Sciences, Inc., priority 2004, dated 2011).
Where a name gives a salt, the structure may show the parent alone. Read-outs that look alike come from different tables or passages of the source.

Assays:
[1] = target: T1, Epithelial Sodium Channel (ENaC) (Canis lupus familiaris, UniProt A0A8I3MKE6+A0A8I3Q679+Q95165); assay: Sodium channel (ENaC) blocking activity, short circuit current in airway epithelial monolayers in Ussing chambers; format: cell-based; conditions: canine bronchial epithelium; for Fold Amiloride (PSA4022 = 100): relative potency, PSA4022 = 100, using IC50 from PSA4022 in same run
T1 construct: endogenous in cells; host or cells: primary canine bronchial epithelial cells from freshly excised airways, cultured at air-liquid interface and mounted in Ussing chambers
T1 sequence (A0A8I3Q679 1-649): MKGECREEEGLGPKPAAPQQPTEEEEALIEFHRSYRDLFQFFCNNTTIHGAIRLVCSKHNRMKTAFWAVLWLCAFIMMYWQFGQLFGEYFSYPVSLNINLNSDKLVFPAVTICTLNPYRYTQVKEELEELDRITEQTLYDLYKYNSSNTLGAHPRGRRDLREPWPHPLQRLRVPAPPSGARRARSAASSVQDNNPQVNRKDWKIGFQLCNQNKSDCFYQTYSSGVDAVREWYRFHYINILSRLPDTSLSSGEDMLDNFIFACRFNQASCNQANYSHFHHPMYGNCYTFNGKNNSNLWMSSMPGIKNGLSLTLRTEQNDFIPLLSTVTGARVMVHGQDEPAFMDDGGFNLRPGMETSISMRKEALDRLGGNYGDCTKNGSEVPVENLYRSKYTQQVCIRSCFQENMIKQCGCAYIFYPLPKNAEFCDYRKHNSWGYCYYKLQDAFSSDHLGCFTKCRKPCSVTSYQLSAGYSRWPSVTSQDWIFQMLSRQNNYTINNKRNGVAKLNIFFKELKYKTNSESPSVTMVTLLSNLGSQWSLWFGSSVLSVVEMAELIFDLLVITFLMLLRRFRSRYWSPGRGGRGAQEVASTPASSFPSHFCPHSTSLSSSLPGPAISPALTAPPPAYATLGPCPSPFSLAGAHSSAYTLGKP
T1 sequence (Q95165 1-641): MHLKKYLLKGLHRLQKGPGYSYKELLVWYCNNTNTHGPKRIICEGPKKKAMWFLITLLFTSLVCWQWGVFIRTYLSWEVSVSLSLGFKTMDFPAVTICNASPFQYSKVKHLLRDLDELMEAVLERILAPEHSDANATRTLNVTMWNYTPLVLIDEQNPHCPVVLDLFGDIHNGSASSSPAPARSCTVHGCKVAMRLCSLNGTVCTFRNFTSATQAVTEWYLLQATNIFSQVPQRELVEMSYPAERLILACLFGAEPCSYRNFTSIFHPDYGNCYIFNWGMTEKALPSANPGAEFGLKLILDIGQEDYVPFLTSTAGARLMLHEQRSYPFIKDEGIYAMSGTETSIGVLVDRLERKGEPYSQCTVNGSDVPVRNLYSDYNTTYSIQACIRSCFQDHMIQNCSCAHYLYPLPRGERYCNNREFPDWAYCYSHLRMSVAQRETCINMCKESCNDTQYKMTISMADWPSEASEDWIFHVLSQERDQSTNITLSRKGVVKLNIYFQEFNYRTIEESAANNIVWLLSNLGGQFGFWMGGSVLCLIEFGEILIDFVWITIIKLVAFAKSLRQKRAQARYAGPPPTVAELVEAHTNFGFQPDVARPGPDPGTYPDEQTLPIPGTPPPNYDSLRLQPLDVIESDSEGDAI
T1 sequence (A0A8I3MKE6 1-646): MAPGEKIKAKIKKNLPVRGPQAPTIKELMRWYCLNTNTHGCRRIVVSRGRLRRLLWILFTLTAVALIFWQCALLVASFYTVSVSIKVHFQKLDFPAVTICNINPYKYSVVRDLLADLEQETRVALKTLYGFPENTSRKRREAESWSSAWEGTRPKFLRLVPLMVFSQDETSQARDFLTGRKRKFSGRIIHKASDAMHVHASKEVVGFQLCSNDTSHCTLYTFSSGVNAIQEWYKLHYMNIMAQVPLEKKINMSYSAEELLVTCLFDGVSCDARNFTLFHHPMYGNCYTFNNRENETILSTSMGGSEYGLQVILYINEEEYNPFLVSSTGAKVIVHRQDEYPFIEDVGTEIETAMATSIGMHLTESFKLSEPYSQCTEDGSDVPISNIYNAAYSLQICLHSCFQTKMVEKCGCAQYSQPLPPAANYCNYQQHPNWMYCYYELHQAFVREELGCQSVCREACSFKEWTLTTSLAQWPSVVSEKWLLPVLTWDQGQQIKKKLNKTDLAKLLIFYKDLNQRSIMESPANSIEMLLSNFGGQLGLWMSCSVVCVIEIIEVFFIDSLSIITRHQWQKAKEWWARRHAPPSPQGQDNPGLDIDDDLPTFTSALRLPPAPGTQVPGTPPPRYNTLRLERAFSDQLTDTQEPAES
Method: One assay used to assess mechanism of action and/or potency of the compounds of the present invention involves the determination of lumenal drug inhibition of airway epithelial sodium currents measured under short circuit current (ISC) using airway epithelial monolayers mounted in Ussing chambers. Cells obtained from freshly excised human, dog or sheep airways are seeded onto porous 0.4 micron Snapwell™ Inserts (CoStar), cultured at air-liquid interface (ALI) conditions in hormonally defined media, and assayed for sodium transport activity (ISC in μA/cm^2) while bathed in Krebs Bicarbonate Ringer (KBR) in Ussing chambers. All test drug additions are to the lumenal bath with half-log dose addition protocols (from 1×10^−11 M to 3×10^−5 M), and the cumulative change in ISC (inhibition) recorded. All drugs are prepared in dimethyl sulfoxide as stock solutions at a concentration of 1×10^−2 M and stored at −20° C. Six preparations are typically run in parallel; one preparation per run incorporates a positive control. All data from the voltage clamps are collected via a computer interface and analyzed off-line.
Dose-effect relationships for all compounds are considered and analyzed by the Prism 3.0 program. EC50 values, maximal effective concentrations are calculated and compared to positive controls.
Utilizing the tests set forth above, Table 3 summaries the ENaC blocking ability of some of the amides of this invention when assayed in canine bronchial epithelium.
Utilizing the tests set forth above, Table 4 summaries the ENaC blocking ability of some of the Esters of this invention when assayed in canine bronchial epithelium.

[2] = Solubility of compounds in sodium chloride solution; format: physicochemical; conditions: saline or isotonic, thermodynamic from solid
Method: Compound solubility was measured in water, 0.12 or 0.9% sodium chloride solution at ambient temperature for up to 10 days. Using a UV/Visable Spectrophotometer and applying Beer's Law with the calculated extinction coeffecient of amiloride (18.6 mM, absorbance values at 362 nm taken from D. Mazzo 1986) the free base concentration in solution was calculated at specified time points. All samples were stored for the duration of the experiment in a single/closure system consisting of glass vials with a stopper-top closure. The vials were maintained at ambient temperature, in the dark, and in the upright position. Compound stability was measured using reverse phase high performance liquid chromatography on the final filtered pulled sample (day 10).
Table 2 gives the solubility in saline of selected amide bis methane sulfonic acid salts and compares them to the mono addition methane sulfonic acid salt of PSA 9714.

[3] = Table 3, read-out: IC50 (nM), Epithelial Sodium Channel Blocking Activity of Selected Amides
[4] = 0.12% sodium chloride solution, 0.12% NaCl solution, methanesulfonic acid salts, ambient temperature, read-out: S1 = Solubility in 0.12% NaCl Solution
[5] = 0.9% sodium chloride solution (normal saline), 0.9% NaCl solution (normal saline), methanesulfonic acid salts, ambient temperature, read-out: S2 = Solubility in 0.9% NaCl Solution (normal Saline)
[6] = Table 4, read-out: IC50 (nM), Epithelial Sodium Channel Blocking Activity of Selected Esters

SMILES | IC50 [1, 3] [nM] | Fold Amiloride (PSA4022 = 100) ([1]; Table 3) | solubility [2, 4] [µg/mL] | melting point | solubility [2, 5] [µg/mL] | IC50 [1, 6] [nM] | Fold Amiloride (PSA4022 = 100) ([1]; Table 4) | solubility ([2]; 0.12% sodium chloride solution, 0.12% saline solution, read-out: solubility in 0.12% saline solution) [µg/mL]
CN(C)CCCNC(=O)COc1ccc(CCCCNC(=N)NC(=O)c2nc(Cl)c(N)nc2N)cc1 [PSA 24304, 2-(4-{4-[N′-(3,5-diamino-6-chloropyrazine-2-carbonyl)guanidino]-butyl}phenoxy)-N-(3-dimethylaminopropyl)acetamide dimethanesulfonate] | 4 ± 2 | 173 | > 5000 | – | – | – | – | –
N=C(NCCCCc1ccc(OCC(N)=O)cc1)NC(=O)c1nc(Cl)c(N)nc1N [PSA 9714, reference compound] | – | 62 | < 100 | – | < 100 | – | – | –
CC(C)(C)OC(=O)NCCOC(=O)COc1ccc(CCCCNC(N)=NC(=O)c2nc(Cl)c(N)nc2N)cc1 [PSA 25309, (4-{4-[N′-(3,5-Diamino-6-chloropyrazine-2-carbonyl)guanidino]butyl}phenoxy)acetic acid 2-tert-butoxycarbonylaminoethyl ester] | – | – | – | 80 to 82 °C | – | 4 | 119 | –
CS(=O)(=O)O.CS(=O)(=O)O.N=C(NCCCCc1ccc(C(=O)N2CCNCC2)cc1)NC(=O)c1nc(Cl)c(N)nc1N [PSA23607, N-(3,5-Diamino-6-chloropyrazine-2-carbonyl)-N′-{4-[4-(piperazine-1-carbonyl)phenyl]butyl}guanidine bis-methanesulfonate] | – | – | – | – | – | – | – | > 5000
N=C(NCCCCc1ccc(OCC(=O)OCCN)cc1)NC(=O)c1nc(Cl)c(N)nc1N [PSA 25454, (4-{4-[N′-(3,5-diamino-6-chloropyrazine-2-carbonyl)guanidino]butyl}-phenoxy)acetic acid 2-aminoethyl ester dihydrochloride] | – | – | – | – | – | 12 ± 2 | 44 | –

Now from value to molecule:

IC50 [1, 3] [nM] | Fold Amiloride (PSA4022 = 100) ([1]; Table 3) | solubility [2, 4] [µg/mL] | melting point | solubility [2, 5] [µg/mL] | IC50 [1, 6] [nM] | Fold Amiloride (PSA4022 = 100) ([1]; Table 4) | solubility ([2]; 0.12% sodium chloride solution, 0.12% saline solution, read-out: solubility in 0.12% saline solution) [µg/mL] | SMILES
9 ± 1 | 98 | > 5000 | 72 to 74 °C | – | – | – | – | N=C(NCCCCc1ccc(OCC(=O)N2CCNCC2)cc1)NC(=O)c1nc(Cl)c(N)nc1N [PSA 19913]
14 ± 9 | 59 | > 5000 | 97 to 99 °C | – | – | – | – | CN(C)CCNC(=O)COc1ccc(CCCCNC(=N)NC(=O)c2nc(Cl)c(N)nc2N)cc1 [PSA 23185a]
6 ± 5 | 152 | > 5000 | 188 to 190 °C | > 5000 | – | – | – | CN(C)CCCCNC(=O)COc1ccc(CCCCNC(=N)NC(=O)c2nc(Cl)c(N)nc2N)cc1 [PSA 24305]
– | 146 | > 5000 | 105 to 107 °C (dec.) | – | – | – | – | N=C(NCCCCc1ccc(OCC(=O)NCCN)cc1)NC(=O)c1nc(Cl)c(N)nc1N [PSA 23778]
– | – | – | 187 to 190 °C | – | – | – | – | CN(C)CCCNC(=O)COc1ccc(CCCCNC(=N)NC(=O)c2nc(Cl)c(N)nc2N)cc1 (as salt: methanesulfonate) [PSA 24304, 2-(4-{4-[N′-(3,5-diamino-6-chloropyrazine-2-carbonyl)guanidino]-butyl}phenoxy)-N-(3-dimethylaminopropyl)acetamide dimethanesulfonate]
– | – | – | – | – | 19 ± 16 | 38 | – | N=C(NCCCCc1ccc(OCC(=O)OCCN2CCCCC2)cc1)NC(=O)c1nc(Cl)c(N)nc1N [PSA 25453, (4-{4-[N′-(3,5-diamino-6-chloropyrazine-2-carbonyl)guanidino]butyl}-phenoxy)acetic acid 2-piperidin-1-yl-ethyl ester]
– | – | – | – | – | 3 | 189 | – | N=C(NCCCCc1ccc(OCC(=O)OCC2CCNCC2)cc1)NC(=O)c1nc(Cl)c(N)nc1N [PSA 25720, (4-{4-[N′-(3,5-diamino-6-chloropyrazine-2-carbonyl)guanidino]butyl}-phenoxy)acetic acid piperidin-4-yl-methyl ester dihydrochloride]
18 | 38 | > 5000 | 87 to 89 °C | > 5000 | – | – | – | N=C(NCCCCc1ccc(OCC(=O)NCCN(CCO)CCO)cc1)NC(=O)c1nc(Cl)c(N)nc1N [PSA 23450]
